Key:
[1] = test system: RAW 264.7 macrophages; test: Flow cytometric analysis of nanocarrier uptake by macrophages (MFI), with or without endocytosis inhibitors; assay type: cell-based; settings: 50 μM CytD or 50 μM CPZ pre-treatment; nanocarriers at 1.0 mg/mL polymer
Description: (§1) Macrophage cell culture. RAW 264.7 macrophages were purchased from ATCC and were cultured in T75 polystyrene tissue culture flasks (BD Biosciences) in Dulbecco's Modified Eagle Medium supplemented with 10% fetal bovine serum (FBS) (Gibco) and 1% penicillin/streptomycin antibiotics (Life Technologies). Cells were passaged by mechanical scraping after reaching 70-80% confluency.
(§2) Flow cytometric analysis of nanocarrier uptake and cytotoxicity. For each specified cell line, a total of 100,000 cells were seeded per well in 24-well polystyrene plates (Falcon). Cells were allowed to adhere overnight at 37° C., 4.0% CO2. For uptake studies involving endocytosis inhibitor pre-treatments, cells were incubated with either PBS (i.e., no inhibitor), cytochalasin D (CytD, 50 μM) phagocytosis inhibitor, or chlorpromazine (CPZ, 50 μM) clathrin-mediated endocytosis inhibitor prior to administering nanocarriers. Inhibitor concentrations were chosen based on published reports^36,53. Cells were treated with nanocarriers at the specified polymer concentration for 2 h. […] A total of 10,000 single cell events were recorded per sample and the resulting data were analyzed using the Cytobank analysis suite^54. The median fluorescence intensity (MFI) was normalized by subtracting the average MFI from untreated cells and was used to quantify the cellular uptake of nanocarriers.

[2] = test system: RAW 264.7 macrophages; test: Flow cytometric cytotoxicity (Zombie Aqua viability dye) in macrophages; assay type: cell-based; settings: mouse, 70 %
Description: as §1, §2

With `C=C1[C@@H](C)[C@H]2[C@H](Cc3ccccc3)NC(=O)[C@]23[C@H](OC(C)=O)/C=C/[C@@](C)(O)C(=O)[C@@H](C)C/C=C/[C@H]3[C@@H]1O` [cytochalasin D] as the compound, how does the “nanocarrier uptake after pre-treatment with endocytosis inhibitors (in words)” value [1] read?
Its value is “decreased uptake of all structures”.

For `CN(C)CCCN1c2ccccc2Sc2ccc(Cl)cc21` [chlorpromazine], which “nanocarrier uptake after pre-treatment with endocytosis inhibitors (in words)” value [1] is on record?
The value was “decreased uptake of all structures”.

For `CCO` [70% ethanol, ethanol], which macrophage viability [2] is on record?
The macrophage viability was “below 30%”.
